# Entries after “also recorded” stand apart in the source; their conditions may differ.
# What was measured:
# [1] = system: LOX-IMVI VemR cell line; assay: LOX-IMVI VemR resensitization to vemurafenib by FGFR antagonists (FIG. 2B); type: cell-based; conditions: for effect on the cell line / resensitization to vemurafenib: FGFR antagonist 1 μM in combination with 5 μM vemurafenib
# Procedure: FIG. 2A-E.|A cell line (“LOX-IMVI VemR”) was engineered to be resistant to vemurafienib. A, An image of an immunoblot of 11 cell lines probed for FGFR1 expression. B, The LOX-IMVI VemR cell line is not affected by 5 μM vemurafenib (i.e., “PLX”) as shown in the DMSO plot; however, the cell line is affected by 5 μM vemurafenib in combination with an antagonist of FGFR signalling (i.e., BGJ398, PD173074, and AP24534).
# The Lox-IMVI VemR cell line was used as the model of acquired resistance in B-raf mutant melanoma. 11 cell lines were tested for FGFR1 expression using a Western blot. Of the cell lines tested, FGFR1 expression was detected in the LOX-IMVI (vemurafenib sensitive) and LOX-IMVI VemR (vemurafenib resistant) lines (FIG. 2A).
# [2] = system: LOX-IMVI VemR cells; assay: In vitro combination study vemurafenib + BGJ398, Vem-resistant cell outgrowth (FIG. 3A); type: cell-based
# [3] = system: SK-MEL-24 cell line; assay: In vitro combination study vemurafenib + BGJ398 (FIG. 3A); type: cell-based; conditions: PLX4032 combined with FGFR antagonist
# From the text: (§1) FIG. 3A-B.|FGFR-inhibition prevents Vem-resistant cell outgrowth. […] B, Expression patterns of select proteins are shown on West Blots in the presence of vemurafenib (PLX4032), an antagonist of FGFR signalling (NV-BGJ398), and/or FGF2.
# [4] = system: SK-MEL-3 cell line; assay: as above; type: cell-based; conditions: PLX4032 combined with FGFR antagonist
# From the text: as §1
# [5] = system: LOX-IMVI tumors; assay: In vivo tumor volume, parental vemurafenib sensitive tumors; conditions: for tumor volume: vemurafenib 25 mg/kg
# Procedure: (§2) FIG. 4A-C.|The LOX-IMVI VemR cell line has FGFR-mediated vemurafenib resistance in vivo. A, LOX-IMVI cells (parental cell line) are sensitive to vemurafenib.
# (§3) The vemurafenib resistance and recovery of the LOX-IMVI VemR cell line was also studied in vivo. The tumor volume (mm^3) was measured in LOX-IMVI (parental, vemurafenib sensitive) tumors and in LOX-IMVI VemR (vemurafenib resistant) tumors in the presence of vemurafenib, BGJ398, or vemurafenib and BGJ398 ([…]).
# [6] = system: LOX-IMVI VemR tumors; assay: In vivo tumor volume, vemurafenib resistant tumors; conditions: for tumor volume / efficacy: combination treatment of vemurafenib and BGJ398
# Procedure: as §2, §3
# [7] = system: HCC1569 cells; assay: Innate resistance model, sensitization to lapatinib (FIG. 20A); type: cell-based; conditions: 100 nM BGJ398 with 5 μM lapatinib
# Procedure: (§4) FIG. 20 A-C.|HER2+ breast cancer models of innate resistance. A, FGFR inhibitor (BGJ398) sensitizes HCC1569 cells to lapatinib. B, FGFR inhibitor (BGJ398) sensitizes MDA-MB-453 cells to lapatinib.
# (§5) The innate resistant HER2+ breast cancer cell lines were HCC1569 and MDA-MB-453. HC1569 expressed FGFR2 (detected by Western blot) and secreted FGF2 (detected by ELISA). FGFR ECD chimeras from the HCC1569 line were sensitized to lapatinib. Furthermore, HC1569 cells that were treated with FGFR inhibitor(s) sensitized the cells to lapatinib. […] MDA-MB-453 cells that were treated with FGFR inhibitor(s) sensitized the cells to lapatinib.
# (§6) HCC1569 and MDA-MB-453 cells were treated with 100 nM afatinib, 100 nM crizotinib, or 100 nM BGJ398 in the presence or absence of 5 μM lapatinib (FIGS. 20A and 20B).
# [8] = system: MDA-MB-453 cells; assay: Innate resistance model, sensitization to lapatinib (FIG. 20B); type: cell-based; conditions: 100 nM BGJ398 with 5 μM lapatinib
# Procedure: as §4, §5, §6
# [9] = system: HER2+ breast cancer models of innate resistance; assay: Tumor volume, lapatinib + FGFR inhibitor (FIG. 20C); type: in vivo; conditions: combination treatment of lapatinib and BGJ398
# [10] = system: HER2+ breast cancer cell lines (AU565, BT-474, HCC1954, SK-BR-3, and UACC-893); assay: Block of FGF2 rescue in lapatinib/FGF2 treated cells (FIG. 19A); type: cell-based; conditions: cells treated with lapatinib and FGF2, then FGFR pan inhibitor
# Procedure: FIG. 19 A-D.|FGFR4 mediates FGF2 rescue in HER2+ breast cancer. A, Percent rescue of cells treated with lapatinib and FGF2. B, Immunoblot of cells treated with lapatinib and FGF2. C, TCGA breast cancer samples (n=913) show high […] levels in breast cancer. D, HER2+ breast cancer cells are enriched for high FGFR4.
# HER2+ breast cancer cell lines (AU565, BT-474, HCC1954, SK-BR-3, and UACC-893) were treated with lapatinib and FGF2. Thereafter, the cells were either exposed to siRNA targeting FGFR1, FGFR2, FGFR3, or FGFR4 or exposed to the FGFR pan inhibitor BGJ398 (FIG. 19A). […] Immunoblots were also performed to detect IP/pTyr/IB:FGFR4, FGFR4, pERK, ERK, and actin (control) in cells treated with lapatinib in the presence and absence of FGF2 (FIG. 19B).
# [11] = system: 624 melanoma cells made resistant to PLX4032; assay: pAKT in PLX4032-resistant 624 melanoma cells (FIG. 8B-C); type: cell-based; conditions: treated with PLX4032
# Procedure: FIG. 8 A-C.|Activation of PI3K represents an alternative mechanism of B-raf-mutant melanomas. A, A synthetic lethal chemical screen identified PI3K-dependent resistance to PLX4032. […] Co-treatment with a […] was needed to growth arrest the 624 ml VemR cells in the presence of PLX4032.
# [12] = system: B-raf mutant melanoma; conditions: cited from earlier work
# [13] = system: LOX-IMVI cells; assay: Secreted factor rescue screen on LOX-IMVI (FIG. 23); type: cell-based
# From the text: FIG. 23 A-C.|Vemurafenib resistant and sensitive cell lines can be used to determine and anticipate paths to resistance in patients. LOX-IMVI cells were rescued by FGF1, FGF2, EGF, and HGF in the screen. A, LOX-IMVI VemR cells were re-sensitized to PLX4032 by FGFR inhibition. B, Dual resistant LOX-IMVI VemR/FGFRi (i.e., resistant to vemurafenib and FGFR inhibitor) cells were re-sensitized to PLX4032 by EGFR inhibition. C, Triple resistant LOX-IMVI VemR/FGFRi/Erlotinib cells were re-sensitized to PLX4032 by MET inhibition.
# [14] = system: HER2+ breast cancer cell lines; assay: FGF rescue screen, breast cancer lines (FIG. 15A); type: cell-based; conditions: 10 HER2+ breast cancer cell lines
# Procedure: (§7) FIG. 15 A-C.|Screen of 10 melanoma cell lines and 10 breast cancer lines was performed to determine the role of FGF signalling in drug resistance. […] C, Summary of FGF receptors, their subfamily, and their ligands.
# (§8) FGF signalling and resistance was studied in 10 HER2+ breast cancer cell lines and in 10 B-raf mutant melanoma cell lines (FIG. 15). 7 of the 10 HER2+ breast cancer cell lines were rescued by FGF2 (FIG. 15A). 8 of the 10 B-raf mutant melanoma cell lines were rescued by FGF2 (FIG. 15B). Subsequent analysis determined that 50-70% of the melanoma lines with the V600E mutation were rescued by FGF2 (n=30).
# [15] = system: B-raf mutant melanoma cell lines; assay: Secreted factor / FGF rescue screen, melanoma lines (FIG. 1, FIG. 15B); type: cell-based; conditions: for rescue of tumor cells from B-raf and MEK antagonists: melanoma cell line, FIG. 1B
# Procedure: (§9) FIG. 1A-D.|Factors secreted by tumor cells and/or the tumor microenvironment contribute to drug resistance through activation of cell-surface receptors. […] D, Secreted growth factors which promote resistance to PLX4032 reactivate MAPK and PI3K pathways. Activation of MAPK by FGF2, MAPK and AKT by HGF and AKT by NRG1 and SCF are shown in 624 MEL cells in the presence of PLX4032. Treatments were 5 μM PLX4032 for 24 hours and 50 ng·mL FGF2, HGF, NRGB1, or SCF for 10 minutes.
# as §7, §8
# [16] = system: 624 MEL cells; assay: Immunoblot of MAPK and PI3K pathway reactivation by secreted growth factors (FIG. 1D); type: cell-based; conditions: 5 μM PLX4032 for 24 hours; 50 ng·mL factor for 10 minutes
# Procedure: as §9
# [17] = system: HER2+ breast cancer cells; assay: Immunoblot of downstream signalling after FGF2 exposure (FIG. 16); type: cell-based; conditions: FGF2 50 ng/mL for 10 minutes or 24 hours, with or without lapatinib 2 μM
# Procedure: FIG. 16 A-B.|FGF2 reactivates key signalling pathways to promote resistance and stimulates sustained activation of downstream signaling. A, An immunoblot of cells exposed to FGF2 for 10 min compared to cells absent exposure. B, An immunoblot of cells exposed to FGF2 for 24 hrs compared to cells absent FGF2 exposure.
# Furthermore, it was determined that FGF2 reactivates key signalling pathways to promote resistance (FIG. 16). This was shown in a cell assay wherein HER2+ breast cancer cells were exposed to FGF2 (50 ng·mL) for 10 minutes in the presence or absence of lapatinib (2 μM) (FIG. 16A). Similarly, an assay was performed wherein HER2+ breast cancer cells were exposed to FGF2 (50 ng/mL) for 24 hours in the presence or absence of lapatinib (2 μM) (FIG. 16B).
# [18] = system: B-raf-mutant melanomas; assay: Immunoblot of MAPK reactivation in FGF2-mediated rescue (FIG. 7A); type: cell-based
# From the text: FIG. 7 A-D.|Reactivation of MEK/ERK downstream of B-raf is a core mechanism of resistance in B-raf-mutant melanomas. A, MAPK signalling is required for FGF2-mediated resistance as shown by immunoblots. […] C, A synthetic lethal chemical screen was utilized to identify signalling pathways mediating resistance to PLX4032 in 12 acquired-resistance melanoma cell lines. […] D, Examples of the synthetic lethal chemical screen shown in FIG. 7C on specific cell lines.
compound,measurement,setting,value
Cc1ccc(C(=O)Nc2ccc(CN3CCN(C)CC3)c(C(F)(F)F)c2)cc1C#Cc1cnc2cccnn12 [AP24534],effect on the cell line / resensitization to vemurafenib,[1],resensitized to vemurafenib; also recorded: affected
"CCN1CCN(c2ccc(Nc3cc(N(C)C(=O)Nc4c(Cl)c(OC)cc(OC)c4Cl)ncn3)cc2)CC1 [BGJ398, 3-(2,6-Dichloro-3,5-dimethoxy-phenyl)-1-{6-[4-(4-ethyl-piperazin-1-yl)-phenylamino]-pyrimidin-4-yl}-1-methyl-urea]",effect on the cell line / resensitization to vemurafenib,[1],resensitized to vemurafenib; also recorded: affected
same,response to treatment,[2]; combination treatment of vemurafenib and BGJ398,high response
same,response to treatment,[2]; single agent alone,minimal response
same,response to PLX4032,[3],augmented response
same,response to PLX4032,[4],augmented response
same,re-emergence of tumors following the end of treatment,[5]; co-treatment with BGJ398 and vemurafenib,can be prevented
same,tumor volume,"[5]; BID and BGJ398 15 mg/kg, QD",tumor volume decreased
same,tumor volume / efficacy,[6],did show a decrease in tumor volume
same,tumor volume / efficacy,[6]; listed as NVP-BGJ398,potent efficacy
same,sensitization to lapatinib,[7],rescue the cell lines from drug resistance; also recorded: sensitizes
same,sensitization to lapatinib,[8],rescue the cell lines from drug resistance; also recorded: sensitizes
same,tumor volume,[9],decrease tumor volume; also recorded: Tumor volume decreases
same,percent rescue from acquired resistance to lapatinib and FGF2,[10],greatest percent rescue
"CCN(CC)CCCCNc1ncc2cc(-c3cc(OC)cc(OC)c3)c(NC(=O)NC(C)(C)C)nc2n1 [PD173074, N-[2-[[4-(diethylamino)butyl]amino]-6-(3,5-dimethoxyphenyl)pyrido[2,3-d]pyrimidin-7-yl]-N′-(1,1-dimethylethyl)-urea]",effect on the cell line / resensitization to vemurafenib,[1],resensitized to vemurafenib; also recorded: affected
"CCCS(=O)(=O)Nc1ccc(F)c(C(=O)c2c[nH]c3ncc(-c4ccc(Cl)cc4)cc23)c1F [vemurafenib, N-(3-{[5-(4-chlorophenyl)-1H-pyrrolo[2,3-b]pyridin-3-yl]carbonyl}-2,4-difluorophenyl)propane-1-sulfonamide]",effect on the cell line,"[1]; 5 μM vemurafenib (PLX) alone, DMSO plot",not affected
same,response to treatment,[2]; single agent alone,minimal response
same,tumor volume,[5]; BID alone,tumor volume decreased; also recorded: sensitive
same,tumor volume,[6]; vemurafenib alone,did not show a decrease in tumor volume
same,pAKT,[11],increase in pAKT
same,time to relapse following maximal response,"[12]; majority of patients, residual tumor",≤ 1 year
same,patients who respond,[12]; patients,majority
same,patients with tumor progression early in therapy,[12]; patients,10%
"FGF1: secreted factor, FGFR ligand",rescue in the secreted factor screen,[13],rescued
"FGF2: secreted growth factor, FGFR ligand, promotes resistance",cell lines rescued by FGF2,[14],7 of the 10
same,cell lines rescued by FGF2,[15]; 10 B-raf mutant melanoma cell lines,8 of the 10
same,rescue of tumor cells from B-raf and MEK antagonists,[15],most broadly and potently
same,melanoma lines with the V600E mutation rescued by FGF2,"[15]; subsequent analysis, n=30",50-70%
same,pathway activated in the presence of PLX4032,[16],MAPK
same,rescue in the secreted factor screen,[13],rescued
same,downstream signalling,[17],sustained activation of downstream signalling
same,MAPK signalling in the presence of PLX4032,[18],activates MEK and ERK
HGF: secreted growth factor which promotes resistance to PLX4032,rescue of tumor cells from B-raf and MEK antagonists,[15],most broadly and potently
same,pathway activated in the presence of PLX4032,[16],MAPK and AKT
same,rescue in the secreted factor screen,[13],rescued
SCF: secreted growth factor which promotes resistance to PLX4032,pathway activated in the presence of PLX4032,[16],AKT
